Laboratory results from US8586768B2, “Design, synthesis and functional characterization of rottlerin analogs” (priority 2009, dated 2013).
Where two headings read alike, the source gives them in different places.

Legend:
P38α = biological target: T1, P38α (Homo sapiens, UniProt Q16539); assay: In-vitro kinase profiling, radioisotope screening assay (Signal Chem); type: biochemical; details: 5 μM compound, 50 μM ATP, vs vehicle control; negative = inhibition
T1 construct: purchased Signal Chem (Richmond, BC, Canada)
Experimental: (§1) Kinase profiling of PK analogs. The inhibitory effect of lead PK analogs were tested against a panel of 15 protein kinase targets (TABLE 1) to develop better lead candidates without “off” target effects. The selectivity assay was performed at Signal Chem™ (Richmond, BC, Canada) by profiling against protein kinase targets using the “Gold Standard” radioisotope screening assay format. This assay format gave the highest signal noise ratio and allowed the direct measurement of catalytic activity of a protein kinase.
(§2) All assays were performed in triplicate in a 96-well assay format and the % error between triplicates is <10%. Protein kinase assays was performed in the presence of 50 μM ATP at 30° C. for 15 min. The activity of the enzymes in the presence of 5 μM PK analogs was compared to that in the vehicle control and expressed as a percent change in activity relative to that observed in the vehicle control. In TABLE 1, the results are expressed as percent activity change compared to control. The intra-assay variability was determined to be less than 10%. Inhibition of target activity by the compound is shown by a negative value, while activation of target activity is shown by positive value, with values >10% considered to be highly significant.

PKCγ = biological target: T2, PKCγ (Homo sapiens, UniProt P05129); assay: as above; type: biochemical; details: 5 μM compound, 50 μM ATP, vs vehicle control; negative = inhibition
T2 construct: purchased Signal Chem (Richmond, BC, Canada)
Experimental: as §1, §2

PKAα = biological target: T3, PKAα (Homo sapiens, UniProt P17612); assay: as above; type: biochemical; details: 5 μM compound, 50 μM ATP, vs vehicle control; negative = inhibition
T3 construct: purchased Signal Chem (Richmond, BC, Canada)
Experimental: as §1, §2

AKT1 = biological target: T4, AKT1 (Homo sapiens, UniProt P31749); assay: as above; type: biochemical; details: for % activity change: 5 μM compound, 50 μM ATP, vs vehicle control, negative = inhibition
T4 construct: purchased Signal Chem (Richmond, BC, Canada)
Experimental: as §1, §2

N27 cells = details: 300 μM MPP+ 24 hr
Experimental: (§3) At the end of the treatment, cytotoxicity was measured using the Sytox cell death assay in a 96-well fluorescence microplate reader.
A second generation of rottlerin analogs was further utilized for neuroprotection studies, as shown as PK201-203 in FIG. 2.
as §3
The analogs were tested in an N27 dopaminergic cell model for their neuroprotective properties. […] At the end of the treatment, cytotoxicity was measured using the Sytox cell death assay in a 96-well fluorescence microplate reader.
(§4) Rat mesencephalic dopaminergic clonal cells (N27) were used and maintained in RPMI 1640 complete medium supplemented with 10% Fetal Bovine Serum, 1% […] and 1% Penicillin/Streptomycin in a 37° C. incubator with 5% CO2. After 4-6 days in culture, the cells were used for the experiments.
(§5) N27 cells were exposed to MPP^+ for 24 hr in the presence or absence of PK analogs in the dose range of 1-30 μM.

[1] = system: caspase-3 activity in N27 cells; assay: MPP+-induced caspase-3 activity assay in N27 cells; type: cell-based, rat; details: for relative protection against MPP+-induced caspase-3 activity within the generation / blockage of MPP+-induced caspase-3 activity: 300 μM MPP+ 24 hr; for relative protection against MPP+-induced caspase-3 activity within the generation: 0.3-10 μM; for blockage of MPP+-induced caspase-3 activity: co-treated with 0.3, 1, 3 and 10 μM
Experimental: To determine whether PK analogs are neuroprotective against MPP+-induced increases in caspase-3 and DNA fragmentation, their effects on MPP+-induced increases in caspase-3 activity and DNA fragmentation, markers of apoptotic cell death, were examined.
The second generation PK analogs were further tested to determine whether the analogs are neuroprotective against MPP+-induced apoptotic cell death. The effects on MPP+-induced increases in caspase-3 enzymatic activity were analyzed, a marker of apoptotic cell death. […] At the end of the treatment, cytotoxicity was measured using the caspase-3 assay in a 96-well fluorescence microplate reader.
The third generation PK analogs were further tested to determine whether the analogs are neuroprotective against MPP+-induced apoptotic cell death. The effects on MPP+-induced increases in caspase-3 enzymatic activity were examined, a marker of apoptotic cell death. N27 cells were exposed to 300 μM MPP+ for 24 hr in the presence or absence of three different PK compounds in the dose range of 0.3-10 μM. At the end of the treatment, cytotoxicity was measured using the caspase-3 assay in a 96-well fluorescence microplate reader.
as §4, §5

C57 black mice = assay: Acute MPTP mouse model of PD, locomotor activity (VersaMax Analyzer); type: in vivo; details: MPTP 4 x 18 mg/kg i.p.; 10 mg/kg oral gavage, 7 days
Experimental: Lead PK analogs protect against behavioral deficits and neurochemical loss in a preclinical MPTP-induced mouse model of PD. After characterizing the neuroprotective effect of PK analogs in cell culture models of PD, as a proof of principle, preliminary evaluation of two lead PK analogs in an acute MPTP animal model of PD were conducted. C57 black mice received 4 doses of MPTP at 18 mg/kg i.p at 2 hr interval. Oral administration of lead PK analogs (10 mg/kg body wt, oral gavage) was started 1 day before MPTP insult and continued for 7 days. 1% DMSO was used as the vehicle control. Locomotor activity was measured using the VersaMax Analyzer 1-2 days before sacrificing the mice. Mice were sacrificed after 7 days of MPTP injection. (n=5). (**p<0.01: PK analogs versus MPTP).

[2] = co-treated with 0.3, 1 and 3 μM

T4 sequence (P31749 whole entry): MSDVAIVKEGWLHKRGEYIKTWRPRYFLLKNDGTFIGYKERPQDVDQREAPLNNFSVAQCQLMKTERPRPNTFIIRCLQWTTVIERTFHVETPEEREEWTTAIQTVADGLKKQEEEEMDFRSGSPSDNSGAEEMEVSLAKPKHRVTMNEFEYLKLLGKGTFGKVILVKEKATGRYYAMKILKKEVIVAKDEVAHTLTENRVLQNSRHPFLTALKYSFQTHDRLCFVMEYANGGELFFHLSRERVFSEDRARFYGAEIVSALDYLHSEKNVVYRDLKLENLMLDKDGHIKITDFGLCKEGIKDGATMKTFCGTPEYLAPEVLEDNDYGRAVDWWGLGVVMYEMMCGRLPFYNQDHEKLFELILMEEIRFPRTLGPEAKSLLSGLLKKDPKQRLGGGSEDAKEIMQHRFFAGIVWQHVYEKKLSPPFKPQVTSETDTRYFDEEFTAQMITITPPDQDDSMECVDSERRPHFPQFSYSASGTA
T1 sequence (Q16539 whole entry): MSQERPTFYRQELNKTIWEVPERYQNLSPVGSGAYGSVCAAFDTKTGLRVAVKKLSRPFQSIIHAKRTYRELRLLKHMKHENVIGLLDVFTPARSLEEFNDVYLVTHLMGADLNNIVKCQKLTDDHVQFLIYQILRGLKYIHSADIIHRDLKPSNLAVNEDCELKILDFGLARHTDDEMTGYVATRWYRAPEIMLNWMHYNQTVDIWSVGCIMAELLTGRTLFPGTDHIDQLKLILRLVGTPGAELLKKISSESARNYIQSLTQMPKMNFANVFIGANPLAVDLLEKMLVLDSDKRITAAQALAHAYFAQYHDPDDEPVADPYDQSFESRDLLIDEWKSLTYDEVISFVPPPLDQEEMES

| SMILES | % activity change (P38α) | % activity change (PKCγ) | % activity change (PKAα) | % activity change (AKT1) | blockage of MPP+-induced cytotoxicity (N27 cells; co-treated with 3 μM) | blockage of MPP+-induced increases in caspase-3 activation ([1]; co-treated with 3 μM) | horizontal locomotor deficits (C57 black mice) | vertical locomotor deficits (C57 black mice) | inhibited by % compared to control (AKT1; 5 μM concentration, given as positive inhibition) | relative potency against MPP+-induced cytotoxic cell death within the generation (N27 cells) | blockage of MPP+-induced cytotoxicity (N27 cells; [2]) | relative protection against MPP+-induced caspase-3 activity within the generation [1] | blockage of MPP+-induced caspase-3 activity [1] | inhibition at 5 µM (AKT1; 5 μM concentration, given as positive inhibition, read-out: inhibited by % compared to control) |
| --- | --- | --- | --- | --- | --- | --- | --- | --- | --- | --- | --- | --- | --- | --- |
| Oc1cc(O)c(Cc2c(O)cc(O)cc2O)c(O)c1 [PK103] | −5% | 9% | 3% | −6% | significant blockage | significant blockage | significantly improved | significantly improved |  |  |  |  |  |  |
| CC(=O)c1c(O)c(C)c(O)c(Cc2c(O)c3c(c4c2OC(c2ccccc2)CC4=O)OC(C)(C)C=C3)c1O (stereo not shown) [PK202] | −1% | 1% | 10% | −12% |  |  | significantly improved | significantly improved | 12% | most potent inhibitor | significant blockage | more effectively protects | dose-dependent blockage |  |
| CC1(C)C=Cc2c(O)cc(O)c(C(=O)/C=C/c3ccccc3)c2O1 [PK302] | −4% | 32% | 1% | −10% |  |  | significantly improved | significantly improved |  | more potent inhibitors than PK301 | significant blockage | more effectively protect | significant blockage |  |
| CC(=O)c1c(O)c(C)c(O)c(Cc2c(O)c3c(c(C(=O)/C=C/c4ccccc4)c2O)OC(C)(C)C=C3)c1O [Rottlerin, (E)-1-[6-[(3-acetyl-2,4,6-trihydroxy-5-methylphenyl)methyl]-5,7-dihydroxy-2,2-dimethylchromen-8-yl]-3-phenylprop-2-en-1-one] | −1% | 6% | 1% | −14% |  |  |  |  |  |  |  |  |  | 14% |
